Results on nine compounds are retold here after patent publication US20120258053A1, “ORAL CARE COMPOSITIONS FOR USE WITH AN ORAL LIGHT DEVICE” (COLGATE-PALMOLIVE COMPANY, priority 2009, published 2012).

“Also recorded” adds a separate entry of the source.

Assay [1] concerns biofilm of A. naeslundi. Briefly: Light-triggered reduction of bacterial biofilm (24 h old). It is filed as cell-based. To be noted: for Percentage Reduction in Biofilm, Light plus photosensitizer: 0.1% dye incubated 2 min prior to irradiation, wavelength given with each dye, 24 J/cm^2 (200 mW/cm^2 @ 2 min); for biofilm reduction compared to light alone: 0.1% concentration, in the presence of light. The method, then:
Bacterial biofilms (24 h old) were treated with the photosensitizers or photo-triggered actives described in the tables below at a concentration less than their minimum inhibitory concentration (MIC). The actives were either pre-incubated before light exposure for 2 s to 15 min, typically less than 2 min, or administered at the same time the biofilm was exposed to the light. The bacteria were irradiated at a set wavelength for 2 s to 15 min (typically less than 2 min) at an energy dose between 1-450 J/cm^2. Optical power densities typically ranged from 1-500 mW/cm^2. Light was either pulsed or provided in one continuous light exposure. Pulsed light treatments were preferred for high optical energy treatments.
On a biofilm of A. naeslundi, the impact of four “photosensitizers” (0.1% concentration) in the presence of light was evaluated. MIC typically ranged from 0.0001% (w/v) to 1% (w/v). The percent biofilm reduction is tabulated below.

The test system of assay [2] is TNFα of HEPM cells stimulated by IL-1β. Description: Cytokine concentration in IL-1β stimulated cell culture after light irradiation with dye. It is filed as cell-based, human. Conditions: 9 mW/cm^2, 1.1 J/cm^2. The method, then:
Cells used in this example include human embryonic palatal mesenchymal (HEPM) cells and oral keratinocytes OBA9 cells. The embodiments also can be used with other cells such as human gingival fibroblasts (HGF). Cells were seeded in 24-well plates and cultured until reaching a confluence above 80%. The confluent-stage cells were treated with stimulants such as IL-1β followed by light irradiation alone, or light irradiation combined with GRAS photosensitizing dye. The cells were either pre-incubated in photosensitizing dye before light exposure, or administered at the same time of light exposure. The cells were incubated in photosensitizing dyes for varied amounts of time, the concentration of photosensitizing dyes were varied, and the cell were irradiated with light for varied amounts of time per exposure, as well as irradiation either one time or multiple times, as described below. After irradiation, the cells were incubated at 37° C. The cell culture media was collected after a certain amount of time for cytokine analysis.
The results tabulated below reveal that visible light (various wavelength, 380-700 nm) alone and photosensitizing dye irradiated with visible light (various wavelength, 380-700 nm) have anti-inflammation effect. […]

As for `O=S(=O)([O-])c1ccc(/N=N/c2cc(S(=O)(=O)[O-])c3ccccc3c2O)c2ccccc12.[Na+].[Na+]` [Chromotrope, Chromotrope FB], the “Percentage Reduction in Biofilm, Light plus photosensitizer” value (from here on “Percentage Reduction in Biofilm”) in assay [1] was 18%.
On to `O=C1/C(=C2\Nc3ccc(S(=O)(=O)[O-])cc3C2=O)Nc2ccc(S(=O)(=O)[O-])cc21.[Na+].[Na+]` [Indigo Carmine], for which the “Percentage Reduction in Biofilm” value in assay [1] turned out to be 30%.
On to Chlorophyllin sodium copper salt, for which the “Percentage Reduction in Biofilm” value in assay [1] is listed as 21%.
On to `COc1cc(S(=O)(=O)[O-])c(C)cc1N=Nc1c(O)ccc2cc(S(=O)(=O)[O-])ccc12.[Na+].[Na+]` [Allura Red, Allura Red AC], for which, in assay [1], the “biofilm reduction compared to light alone” value (from here on “biofilm reduction”) was “increased biofilm reduction compared to light alone” and the “Percentage Reduction in Biofilm” value is 55%.
On to `Cc1cc2nc3c(=O)[nH]c(=O)nc-3n(C[C@H](O)[C@H](O)[C@H](O)CO)c2cc1C` [Riboflavin], for which, in assay [1], the “biofilm reduction” value is “increased biofilm reduction compared to light alone” and the “Percentage Reduction in Biofilm” value is reported as 56%.
For `O=C([O-])C1=NN(c2ccc(S(=O)(=O)[O-])cc2)C(=O)C1N=Nc1ccc(S(=O)(=O)[O-])cc1.[Na+].[Na+].[Na+]` (stereo not shown) [Tartrazine], in assay [1], the “biofilm reduction” value is “increased biofilm reduction compared to light alone” and the “Percentage Reduction in Biofilm” value is reported as 72%.
As for `CCN(Cc1cccc(S(=O)(=O)[O-])c1)c1ccc(C(=C2C=CC(=[N+](CC)Cc3cccc(S(=O)(=O)[O-])c3)C=C2)c2ccccc2S(=O)(=O)[O-])cc1.[Na+].[Na+]` [Erioglaucine, Erioglaucine disodium salt], the “Percentage Reduction in Biofilm” value in assay [1] was 41%.
`CN(C)c1ccc(C(=C2C=CC(=[N+](C)C)C=C2)c2c(O)c(S(=O)(=O)[O-])cc3cc(S(=O)(=O)[O-])ccc23)cc1.[Na+]` [Lissamine Green B]: in assay [1], the “biofilm reduction” value is recorded as “increased biofilm reduction compared to light alone” and the “Percentage Reduction in Biofilm” value stood at 43%.
`CCN(Cc1cccc(S(=O)(=O)[O-])c1)c1ccc(C(=C2C=CC(=[N+](CC)Cc3cccc(S(=O)(=O)[O-])c3)C=C2)c2ccc(O)cc2S(=O)(=O)[O-])cc1.[Na+].[Na+]` [Fast Green, Fast Green FCF]: in assay [2] (Fast Green 1000 ppm combined with light at 625 nm for 2 minutes), the “effect on TNFα concentration” value is reported as “can decrease pro-inflammation cytokine TNFα concentration; also recorded: can reduce concentration of TNFα”. Further, in assay [2] (HEPM cells, IL-1β stimulated, Fast Green 1000 ppm, 625 nm, 2 minutes, Il-1β alone 9, Il-1β + light 5.8), the “Cytokine Conc. TNF-α, Il-1β + light + Dye” value was found to be 3.4 pg/mL. In assay [1], the “biofilm reduction” value is listed as “increased biofilm reduction compared to light alone” and the “Percentage Reduction in Biofilm” value turned out to be 43%.
